Experimental data: patent publication US20110065735A1, “SUBSTITUTED QUINAZOLINES” (Shire LLC, priority 2008, published 2011)
Like-named read-outs stand apart in the source and are kept apart here.

Experiments:
[1] = tested on: megakaryocytopoiesis; experiment: inhibition of TPO-induced megakaryocytopoiesis (differentiation of human CD34+ stem cells into megakaryocytes); format: cell-based; conditions: read-out: anti-megakaryocytic IC50
From the text: Such activity may be assessed using a well established model. Assessment of the in vitro anti-megakaryocytic activity—and potentially therefore the platelet lowering capability—of the anagrelide prodrugs can be determined using the model of megakaryocytopoiesis (Cohen-Solal et al., Thromb. Haemost. 1997, 78:37-41 and Cramer et al., Blood, 1997, 89:2336-46). This involves examining the differentiation of human CD34^+ stem cells into megakaryocytes which ultimately give rise to blood platelets.

[2] = tested on: human phosphodiesterase III (PDE III); experiment: PDE III inhibition; format: biochemical
[3] = human pharmacokinetics of anagrelide and its metabolite
[4] = tested on: megakaryocytopoiesis; conditions: cited from earlier work
[5] = in vivo; cited from earlier work
[6] = aqueous solubility; format: physicochemical
[7] = in vivo; conditions: dog
Protocol: The potential benefit of improved water solubility on the absorption of these open-ring analogues was shown in a comparative bioavailability study in the dog. Using the unsubstituted ethyl-5,6-dichloro-3,4-dihydro-2-(1H)-iminoquinazoline-3-acetate HBr as a model compound, a comparison was made of the systemic availability of anagrelide when given as this compound or as anagrelide itself in equimolar doses (7.7 & 6.1 mg/kg respectively).
The lesser variability was consistent with more efficient absorption. This study illustrated the potential benefits of the open-ring prodrugs to improve absorption.

[8] = biological target: human phosphodiesterase III (PDE III); conditions: cited from earlier work
[9] = tested on: erythroid or myelomonocytic differentiation; conditions: stimulated by erythropoietin or granulocyte-macrophage colony-stimulating factor; cited from earlier work
[10] = conversion of prodrug to anagrelide in human plasma (LC/MS-MS); format: in vitro ADME; conditions: spiked 100 ng/mL, room temperature, first point of measurement (immediately after mixing)
Protocol: Such prodrugs are likely to be extremely rapidly and completely cyclised in plasma to the closed ring 3-alkylanagrelide analogues. […] Human plasma was spiked with anagrelide prodrug (final concentration 100 ng/mL). Immediately after mixing, and at 15, 30, 45 and 60 minutes afterward samples were analysed for anagrelide prodrug and anagrelide.

For `CC1(C)C(=O)NC2=Nc3ccc(Cl)c(Cl)c3CN21` [3,3-dimethyl anagrelide], the IC50 [1] was roughly 160 nM.
In the case of `O=C1NC2=Nc3ccc(Cl)c(Cl)c3CN2C1O` (stereo not drawn) [3-hydroxyanagrelide], the “potency as PDE III inhibitor relative to anagrelide” value [2] is given as “over 40 fold”, the “in vivo exposure relative to parent drug” value [3] is given as 2-3 fold and the “potency in inhibition of megakaryocytopoiesis relative to parent drug” value [4] is given as “no more potent than the parent drug”. For the same compound, the typical half-life [5] was 2.5 h.
In the case of `O=C1CN2Cc3c(ccc(Cl)c3Cl)N=C2N1` [Anagrelide, 6,7-dichloro-1,5-dihydroimidazo[2,1-b]-quinazolin-2(3H)-one], the IC50 ([1]; Homo sapiens) is reported as 27 nM, the solubility ([6]; aqueous, pH 7, aqueous buffer, read-out: aqueous solubility) is reported as less than 10 µg/mL and the metabolite-to-drug exposure ratio ([7]; male) is reported as 1.5. The AUC ([7]; male, AUC for anagrelide, range) was 21.6 to 188 ng·h/mL, the Cmax ([7]; male, Cmax for anagrelide, range) was 9.5 to 44.3 ng/mL and the IC50 ([4]; estimated, background statement, read-out: IC50 inhibition of TPO-induced megakaryocytopoiesis) was roughly 26 nM. The IC50 [8] was roughly 29 nM, the “effect on erythroid or myelomonocytic differentiation” value [9] was “does not affect” and the first pass effect [5] was greater than 50%. For the same compound, the typical half-life [5] was 1.5 h.
For `Br.CCOC(=O)CN1Cc2c(ccc(Cl)c2Cl)NC1=N` [ethyl-5,6-dichloro-3,4-dihydro-2-(1H)-iminoquinazoline-3-acetate HBr], the solubility ([6]; distilled water) was roughly 5500 µg/mL, the “prodrug remaining in human plasma” value [10] was “no prodrug could be found” and the metabolite-to-drug exposure ratio [7] was 0.9. For the same compound, the “fold higher Cmax for anagrelide than after anagrelide itself” value ([7]; 6.1 mg/kg) was “approximately 17 fold” and the “mean fold higher AUC for anagrelide than after anagrelide itself” value ([7]; 6.1 mg/kg) was 16 fold.
For `Cc1[nH]c(=O)c(C#N)cc1-c1ccncc1` [milrinone], the IC50 [8] is given as 170 to 350 nM.
